Reference: patent US20050009005A1, “Methods of using quantitative lipid metabolome data” (Lipomics Technologies, Inc., priority 2001, published 2005)
Where two headings read alike, the source gives them in different places.

Tested on: de novo fatty acid synthesis
[1] = Adipose, CE, mean of treated mice
[2] = Adipose, FFA, mean of treated mice
[3] = Adipose, PL, mean of treated mice
[4] = Adipose, TAG, mean of treated mice
[5] = Heart, CE, mean of treated mice
[6] = Heart, FFA, mean of treated mice
[7] = Heart, PC, mean of treated mice
[8] = Heart, PS/I, mean of treated mice
[9] = Heart, TAG, mean of treated mice
[10] = Liver, CE, mean of treated mice

CN(CCOc1ccc(CC2SC(=O)NC2=O)cc1)c1ccccn1 (centres unmarked) [rosiglitazone]
14:0 (Adipose, CE, mean): 3.8 percentage of total fatty acids within each lipid class
16:0 (Adipose, CE, mean): 10.9 percentage of total fatty acids within each lipid class
16:1n7 (Adipose, CE, mean): 7.1 percentage of total fatty acids within each lipid class
18:0 (Adipose, CE, mean): 3.8 percentage of total fatty acids within each lipid class
18:1n7 (Adipose, CE, mean): 1.3 percentage of total fatty acids within each lipid class
18:1n9 (Adipose, CE, mean): 31.8 percentage of total fatty acids within each lipid class
Saturates (Adipose, CE, mean): 24.3 percentage of total fatty acids within each lipid class
Total (Adipose, CE, mean): 100.0 percentage of total fatty acids within each lipid class
Total n7 (Adipose, CE, mean): 8.4 percentage of total fatty acids within each lipid class
Total n9 (Adipose, CE, mean): 33.7 percentage of total fatty acids within each lipid class
14:0 [1]: 131.5 nanomoles per gram
16:0 [1]: 361.1 nanomoles per gram
16:1n7 [1]: 248.8 nanomoles per gram
18:0 [1]: 128.3 nanomoles per gram
18:1n7 [1]: 44.3 nanomoles per gram
18:1n9 [1]: 1135.7 nanomoles per gram
Saturates [1]: 833.5 nanomoles per gram
Total n7 [1]: 293.1 nanomoles per gram
Total n9 [1]: 1202.9 nanomoles per gram
Total nMole of [1]: 3405.8 nanomoles per gram
14:0 (Adipose, FFA, mean): 3.0 percentage of total fatty acids within each lipid class
16:0 (Adipose, FFA, mean): 16.7 percentage of total fatty acids within each lipid class
16:1n7 (Adipose, FFA, mean): 8.0 percentage of total fatty acids within each lipid class
18:0 (Adipose, FFA, mean): 3.6 percentage of total fatty acids within each lipid class
18:1n7 (Adipose, FFA, mean): 3.4 percentage of total fatty acids within each lipid class
18:1n9 (Adipose, FFA, mean): 30.4 percentage of total fatty acids within each lipid class
Saturates (Adipose, FFA, mean): 23.9 percentage of total fatty acids within each lipid class
Total (Adipose, FFA, mean): 100.0 percentage of total fatty acids within each lipid class
Total n9 (Adipose, FFA, mean): 30.8 percentage of total fatty acids within each lipid class
14:0 [2]: 391.9 nanomoles per gram
16:0 [2]: 2241.1 nanomoles per gram
16:1n7 [2]: 1073.7 nanomoles per gram
18:0 [2]: 487.0 nanomoles per gram
18:1n7 [2]: 461.5 nanomoles per gram
18:1n9 [2]: 4055.1 nanomoles per gram
Saturates [2]: 3203.6 nanomoles per gram
Total n7 [2]: 1535.2 nanomoles per gram
Total n9 [2]: 4117.3 nanomoles per gram
Total nMole of [2]: 13373.4 nanomoles per gram
14:0 (Adipose, PL, mean): 1.6 percentage of total fatty acids within each lipid class
16:0 (Adipose, PL, mean): 18.8 percentage of total fatty acids within each lipid class
16:1n7 (Adipose, PL, mean): 3.6 percentage of total fatty acids within each lipid class
18:0 (Adipose, PL, mean): 13.7 percentage of total fatty acids within each lipid class
18:1n7 (Adipose, PL, mean): 2.8 percentage of total fatty acids within each lipid class
18:1n9 (Adipose, PL, mean): 18.0 percentage of total fatty acids within each lipid class
Saturates (Adipose, PL, mean): 36.3 percentage of total fatty acids within each lipid class
Total (Adipose, PL, mean): 100.0 percentage of total fatty acids within each lipid class
Total n7 (Adipose, PL, mean): 6.5 percentage of total fatty acids within each lipid class
Total n9 (Adipose, PL, mean): 19.2 percentage of total fatty acids within each lipid class
14:0 [3]: 152.1 nanomoles per gram
16:0 [3]: 1706.0 nanomoles per gram
16:1n7 [3]: 338.8 nanomoles per gram
18:0 [3]: 1240.0 nanomoles per gram
18:1n7 [3]: 261.8 nanomoles per gram
18:1n9 [3]: 1679.9 nanomoles per gram
Saturates [3]: 3281.6 nanomoles per gram
Total n7 [3]: 600.6 nanomoles per gram
Total n9 [3]: 1787.7 nanomoles per gram
Total nMole of [3]: 4559.5 nanomoles per gram
14:0 (Adipose, TAG, mean): 1.8 percentage of total fatty acids within each lipid class
16:0 (Adipose, TAG, mean): 22.5 percentage of total fatty acids within each lipid class
16:1n7 (Adipose, TAG, mean): 7.3 percentage of total fatty acids within each lipid class
18:0 (Adipose, TAG, mean): 1.5 percentage of total fatty acids within each lipid class
18:1n7 (Adipose, TAG, mean): 3.2 percentage of total fatty acids within each lipid class
18:1n9 (Adipose, TAG, mean): 30.5 percentage of total fatty acids within each lipid class
Saturates (Adipose, TAG, mean): 26.2 percentage of total fatty acids within each lipid class
Total (Adipose, TAG, mean): 100.0 percentage of total fatty acids within each lipid class
Total n7 (Adipose, TAG, mean): 10.5 percentage of total fatty acids within each lipid class
Total n9 (Adipose, TAG, mean): 30.8 percentage of total fatty acids within each lipid class
14:0 [4]: 52712.2 nanomoles per gram
16:0 [4]: 650079.8 nanomoles per gram
16:1n7 [4]: 210006.6 nanomoles per gram
18:0 [4]: 43888.4 nanomoles per gram
18:1n7 [4]: 93310.6 nanomoles per gram
18:1n9 [4]: 880178.1 nanomoles per gram
Saturates [4]: 755758.5 nanomoles per gram
Total n7 [4]: 303317.2 nanomoles per gram
Total n9 [4]: 891269.3 nanomoles per gram
Total nMole of [4]: 962282.9 nanomoles per gram
14:0 (Heart, CE, mean): 4.3 percentage of total fatty acids within each lipid class
16:0 (Heart, CE, mean): 14.6 percentage of total fatty acids within each lipid class
16:1n7 (Heart, CE, mean): 3.4 percentage of total fatty acids within each lipid class
18:0 (Heart, CE, mean): 6.4 percentage of total fatty acids within each lipid class
18:1n7 (Heart, CE, mean): 1.3 percentage of total fatty acids within each lipid class
18:1n9 (Heart, CE, mean): 25.5 percentage of total fatty acids within each lipid class
14:0 [5]: 56.4 nanomoles per gram
16:0 [5]: 198.8 nanomoles per gram
16:1n7 [5]: 45.4 nanomoles per gram
18:0 [5]: 89.0 nanomoles per gram
18:1n7 [5]: 19.3 nanomoles per gram
18:1n9 [5]: 370.9 nanomoles per gram
Saturates [5]: 379.2 nanomoles per gram
Total n7 [5]: 64.8 nanomoles per gram
Total n9 [5]: 383.4 nanomoles per gram
Total nMole of [5]: 1358.5 nanomoles per gram
14:0 (Heart, CL, mean): 0.2 percentage of total fatty acids within each lipid class
16:0 (Heart, CL, mean): 1.3 percentage of total fatty acids within each lipid class
16:1n7 (Heart, CL, mean): 2.0 percentage of total fatty acids within each lipid class
18:0 (Heart, CL, mean): 2.4 percentage of total fatty acids within each lipid class
18:1n7 (Heart, CL, mean): 3.0 percentage of total fatty acids within each lipid class
18:1n9 (Heart, CL, mean): 5.0 percentage of total fatty acids within each lipid class
Saturates (Heart, CL, mean): 4.1 percentage of total fatty acids within each lipid class
Total (Heart, CL, mean): 100.0 percentage of total fatty acids within each lipid class
Total n7 (Heart, CL, mean): 5.1 percentage of total fatty acids within each lipid class
Total n9 (Heart, CL, mean): 5.3 percentage of total fatty acids within each lipid class
14:0 (Heart, FFA, mean): 2.1 percentage of total fatty acids within each lipid class
16:0 (Heart, FFA, mean): 22.6 percentage of total fatty acids within each lipid class
16:1n7 (Heart, FFA, mean): 3.0 percentage of total fatty acids within each lipid class
18:0 (Heart, FFA, mean): 8.3 percentage of total fatty acids within each lipid class
18:1n7 (Heart, FFA, mean): 3.6 percentage of total fatty acids within each lipid class
18:1n9 (Heart, FFA, mean): 18.7 percentage of total fatty acids within each lipid class
Saturates (Heart, FFA, mean): 33.8 percentage of total fatty acids within each lipid class
Total (Heart, FFA, mean): 100.0 percentage of total fatty acids within each lipid class
Total n7 (Heart, FFA, mean): 6.6 percentage of total fatty acids within each lipid class
Total n9 (Heart, FFA, mean): 19.4 percentage of total fatty acids within each lipid class
14:0 [6]: 52.4 nanomoles per gram
16:0 [6]: 560.7 nanomoles per gram
16:1n7 [6]: 73.6 nanomoles per gram
18:0 [6]: 206.9 nanomoles per gram
18:1n7 [6]: 90.0 nanomoles per gram
18:1n9 [6]: 466.4 nanomoles per gram
Saturates [6]: 839.0 nanomoles per gram
Total n7 [6]: 163.6 nanomoles per gram
Total n9 [6]: 483.8 nanomoles per gram
Total nMole of [6]: 2482.9 nanomoles per gram
14:0 (Heart, PC, mean): 0.2 percentage of total fatty acids within each lipid class
16:0 (Heart, PC, mean): 29.2 percentage of total fatty acids within each lipid class
16:1n7 (Heart, PC, mean): 1.0 percentage of total fatty acids within each lipid class
18:0 (Heart, PC, mean): 11.6 percentage of total fatty acids within each lipid class
18:1n7 (Heart, PC, mean): 4.0 percentage of total fatty acids within each lipid class
18:1n9 (Heart, PC, mean): 10.7 percentage of total fatty acids within each lipid class
Saturates (Heart, PC, mean): 41.4 percentage of total fatty acids within each lipid class
Total (Heart, PC, mean): 100.0 percentage of total fatty acids within each lipid class
Total n7 (Heart, PC, mean): 5.0 percentage of total fatty acids within each lipid class
Total n9 (Heart, PC, mean): 10.9 percentage of total fatty acids within each lipid class
14:0 [7]: 68.3 nanomoles per gram
16:0 [7]: 8497.6 nanomoles per gram
16:1n7 [7]: 289.1 nanomoles per gram
18:0 [7]: 3392.4 nanomoles per gram
18:1n7 [7]: 1154.7 nanomoles per gram
18:1n9 [7]: 3120.1 nanomoles per gram
Saturates [7]: 12059.6 nanomoles per gram
Total n7 [7]: 1443.8 nanomoles per gram
Total n9 [7]: 3184.2 nanomoles per gram
Total nMole of [7]: 14579.5 nanomoles per gram
14:0 (Heart, PS/I, mean): 0.3 percentage of total fatty acids within each lipid class
16:0 (Heart, PS/I, mean): 5.2 percentage of total fatty acids within each lipid class
16:1n7 (Heart, PS/I, mean): 0.4 percentage of total fatty acids within each lipid class
18:0 (Heart, PS/I, mean): 33.6 percentage of total fatty acids within each lipid class
18:1n7 (Heart, PS/I, mean): 1.4 percentage of total fatty acids within each lipid class
18:1n9 (Heart, PS/I, mean): 5.1 percentage of total fatty acids within each lipid class
Saturates (Heart, PS/I, mean): 39.7 percentage of total fatty acids within each lipid class
Total (Heart, PS/I, mean): 100.0 percentage of total fatty acids within each lipid class
Total n7 (Heart, PS/I, mean): 1.8 percentage of total fatty acids within each lipid class
Total n9 (Heart, PS/I, mean): 5.8 percentage of total fatty acids within each lipid class
14:0 [8]: 25.3 nanomoles per gram
16:0 [8]: 515.0 nanomoles per gram
16:1n7 [8]: 36.4 nanomoles per gram
18:0 [8]: 3334.5 nanomoles per gram
18:1n7 [8]: 143.9 nanomoles per gram
18:1n9 [8]: 504.6 nanomoles per gram
Saturates [8]: 3945.4 nanomoles per gram
Total n7 [8]: 180.2 nanomoles per gram
Total n9 [8]: 572.9 nanomoles per gram
Total nMole of [8]: 4967.1 nanomoles per gram
14:0 (Heart, TAG, mean): 3.0 percentage of total fatty acids within each lipid class
16:0 (Heart, TAG, mean): 26.0 percentage of total fatty acids within each lipid class
16:1n7 (Heart, TAG, mean): 4.9 percentage of total fatty acids within each lipid class
18:0 (Heart, TAG, mean): 3.5 percentage of total fatty acids within each lipid class
18:1n7 (Heart, TAG, mean): 3.2 percentage of total fatty acids within each lipid class
18:1n9 (Heart, TAG, mean): 26.2 percentage of total fatty acids within each lipid class
14:0 [9]: 160.8 nanomoles per gram
16:0 [9]: 1597.3 nanomoles per gram
16:1n7 [9]: 316.4 nanomoles per gram
18:0 [9]: 173.5 nanomoles per gram
18:1n7 [9]: 210.7 nanomoles per gram
18:1n9 [9]: 1775.7 nanomoles per gram
Saturates [9]: 1993.9 nanomoles per gram
Total n7 [9]: 527.1 nanomoles per gram
Total n9 [9]: 1813.1 nanomoles per gram
Total nMole of [9]: 2014.7 nanomoles per gram
14:0 (Liver, CE, mean): 1.9 percentage of total fatty acids within each lipid class
16:0 (Liver, CE, mean): 48.0 percentage of total fatty acids within each lipid class
16:1n7 (Liver, CE, mean): 11.8 percentage of total fatty acids within each lipid class
18:0 (Liver, CE, mean): 3.5 percentage of total fatty acids within each lipid class
18:1n7 (Liver, CE, mean): 2.3 percentage of total fatty acids within each lipid class
18:1n9 (Liver, CE, mean): 19.9 percentage of total fatty acids within each lipid class
Saturates (Liver, CE, mean): 54.6 percentage of total fatty acids within each lipid class
Total (Liver, CE, mean): 100.0 percentage of total fatty acids within each lipid class
Total n7 (Liver, CE, mean): 14.1 percentage of total fatty acids within each lipid class
Total n9 (Liver, CE, mean): 20.5 percentage of total fatty acids within each lipid class
14:0 [10]: 110.6 nanomoles per gram
16:0 [10]: 2765.2 nanomoles per gram
16:1n7 [10]: 678.5 nanomoles per gram
